The source of these data is PMC6274124, “Design, Synthesis and Biological Evaluation of Brain-Targeted Thiamine Disulfide Prodrugs of Ampakine Compound LCX001” (Molecules, 2016).

Structures are written as SMILES.

Data set [1] relates to respiratory depression induced by pain relieving opiates. Also noted: method as in PMID 19907420. The conditions noted are these: single oral dose of 1500 mg, without affecting the pain relieving effects; cited from earlier work.
A short description of data set [2]: Metabolic stability in mice plasma extract at 37 °C. Format: in vitro ADME. The conditions noted are these: for half-life at 1.67 µg/mL: mouse. The protocol: (§1) To determine the plasma stability and brain stability of these prodrugs, we assayed the pharmacokinetics of the prepared compounds 7a–7f in mice plasma extract and brain homogenate at 37 °C. The pseudo-first order rate constants of disappearance (Ke) of the prodrugs and their half lives (t1/2) which were calculated by linear regression of Ln of peak area against time in minutes are listed in Table 1.
(§2) Blood was drawn from mice though the orbital sinus and was collected in a heparinized tube paved with heparin sodium. Samples were centrifuged at 10,000 rpm for 16 min to separate plasma which was diluted with four volumes of water. The brain was removed and homogenized. Samples were then placed on ice and used immediately. Ten μL acetonitrile solution (10 μg/mL) of the compound was added to 50 μL of plasma or brain homogenate and gently vortexed. Samples were incubated at 37 °C and aliquots were removed after 0, 5, 15, 30, 60 and 90 min, respectively. One hundred μL acetonitrile was added to each and vortexed. Samples were centrifuged for 10 min to remove proteins and the supernatants were analyzed by LC-MS/MS method as described.

Data set [3] can be described thus: Metabolic stability in mice brain homogenate at 37 °C. It counts as in vitro ADME. The conditions noted are these: for half-life at 1.67 µg/mL: mouse, mouse brain homogenate. On the procedure: as §1, §2
The subject of data set [4] is opiate poisoned mice. As to the kind of experiment: Model of opiate-induced respiratory depression (030418-induced), mortality of mice. Format: in vivo, Kunming mice. The conditions noted are these: for Death Rate: 10 min before 030418 15 mg/kg sc. The protocol: To investigate the effect of 7e on opiate-induced respiratory depression, we proceeded with a preliminary pharmacodynamic study in mice. […] Varying doses of prodrug 7e were administered 10 min before 030418 administration. The effect of prodrug 7e and LCX001 on opiate-induced respiratory depression was evaluted by the mortality of mice. […] Further pharmacodynamic studies are currently underway.
A total of 80 male Kunming mice weighing 20–22 g were used in this study. Animals were fed ad libitum with a commercial rodent feed and had free access to drinking water. All animals received human care, and the study protocols complied with the guidelines of the animal center of academy of military medical sciences. Throughout the experiments, the animals were handled according to the international ethical guidelines for the care of laboratory animals.
Respiratory depression in conscious mice was induced by hypodermic (15 mg/kg) administration of 030418. Ten min prior to 030418 administration, animals were randomly assigned to the experimental groups and received an intravenous injection of either saline solution (control), LCX001 (10 mg/kg), prodrug 7e (30 mg/kg, 10 mg/kg, 3 mg/kg, 1 mg/kg or 0.5 mg/kg) (Table 4).
During the experiment, the poisoning time, poisoning symptoms and death time were recorded. The death rate (death number/sample number) was used to evaluate the effect of 7e on opiate-induced respiratory depression.

Data set [5] can be described thus: Brain distribution of LCX001 after i.v. administration. It counts as in vivo, Kunming mice. The conditions noted are these: mice; for AUC0-t: LCX001 in brain, single dose equivalent to 1 mg/kg LCX001, n = 3. The text has this:
To further evaluate the possibility of prodrug 7e being transported across the BBB, the brain distribution of prodrug 7e and LCX001 after injection were detected at fixed time intervals. […] The AUC0-t for prodrug 7e was enhanced to 2.23 times that of LCX001. The MRT0-t was increased to 3.29 times that of LCX001. […] This agreed well with the fact that the “lock-in” effect and sustained release effect of the prodrug 7e could effectively delay the clearance of LCX001.
(§3) Mice were randomly divided into two groups, 27 in each group, for different sampling times and housed in one cage. Each animal was injected with 7e or LCX001 in 20% w/v hydroxypropyl-β-cyclodextrin and saline (0.45%) solution through the tail vein at a single dose equivalent to 1 mg/kg body weight of LCX001. At appropriate time intervals (5, 10, 30, 45, 60, 90, 120, 240 and 480 min), the animals were sacrificed and 1 mL blood samples withdrawn from the orbital sinus were collected in heparinized tubes. Fifty μL plasma was immediately separated by centrifugation, diluted with 200 μL methanol and stored at −20 °C until assay. Meanwhile, the brain was removed, weighed, homogenized and diluted with methanol to 1:5 (g/mL). The homogenates were also stored at −20 °C until assay. Internal standard (200 ng/mL) was added to the samples. The samples were vortexed for 3 min and then centrifuged at 9500 rpm for 15 min. Fifty μL supernatants were withdrawn, then 50 μL of water was added to each aliquot and vortexed. Ten μL samples were analyzed by LC-MS/MS method as described.
The Cmax, AUC0-t, Tmax, MRT0-t and t1/2 were calculated by WinNonlin software (version 5.2.1, Pharsight, Mountain View, CA, USA). Statistical evaluation was performed using analysis of variance followed by t-test. A value of p < 0.05 was considered significant.

A short description of data set [6]: Pharmacokinetics of LCX001 in plasma after i.v. administration. Format: in vivo, Kunming mice. The note with it: mice. On the procedure: The compounds were injected through the caudal vein of the mice with a single dose equivalent to 1 mg/kg body weight of LCX001, and then blood was collected to analyze the concentration of LCX001 at different intervals by an LC-MS/MS method.
as §3, with “Fifty μL supernatants were withdrawn, then 50 μL of water was added to each aliquot and vortexed.” left out
The Cmax, AUC0-t, Tmax, MRT0-t and t1/2 were calculated by WinNonlin software (version 5.2.1, Pharsight, Mountain View, CA, USA). […]

Data set [7] concerns field excitatory postsynaptic potential (EPSP) in the rat dentate gyrus. Also noted: method as in earlier work. The note with it: cited from earlier work.
Data set [8] has as its system damphetamine- stimulated locomotion. More on the design: method as in earlier work. The note with it: behavioral testing; cited from earlier work.

Take `O=C(c1ccc2nonc2c1)N1CCOCC1` [CX717]: the “Effect on opiate-induced respiratory depression” value in data set [1] is reported as “positive effects”.

For `CCCCSS/C(CCOC(=O)CCCC(=O)O[C@H]1CC[C@H](N(C)C(=O)c2ccc3nonc3c2)CC1)=C(/C)N(C)C=O` [Compound 7c, S-3-(Butyldisulfanyl)-4-(N-methylformamido)pent-3-en-1-yl((1R,4R)-4-(N-methylbenzo[c][1,2,5]oxadiazole-5-carboxamido)cyclohexyl) glutarate], the melting point (usually the temperature, or range, at which the solid turns liquid) was 67.6 to 68.4 °C. In addition, in data set [2], the “Ke, pseudo-first order rate constant of disappearance” value (from here on “Ke, pseudo-first order rate constant”) is given as 6.77 min^−1 (×10^−2) and the half-life (usually how long it takes for the measured level to halve) at 1.67 µg/mL is 10.2 min. In [3], the “Ke, pseudo-first order rate constant” value is listed as 4.05 min^−1 (×10^−2) and the half-life at 1.67 µg/mL amounted to 17.1 min.

Take `C/C(=C(\CCOC(=O)CCCC(=O)O[C@H]1CC[C@H](N(C)C(=O)c2ccc3nonc3c2)CC1)SSCCC(C)C)N(C)C=O` [Compound 7e, S-3-(Isoamyldisulfanyl)-4-(N-methylformamido)pent-3-en-1-yl((1R,4R)-4-(N-methylbenzo[c][1,2,5]oxadiazole-5-carboxamido)cyclohexyl) glutarate]: the “Ke, pseudo-first order rate constant” value was 4.34 min^−1 (×10^−2) in data set [2] and 3.69 min^−1 (×10^−2) in data set [3]. The half-life at 1.67 µg/mL in data set [2] is 16 min; in data set [3], 18.8 min. The “Required molar dose relative to LCX001 to achieve the same effect” value in data set [4] (3 mg/kg 7e gave the same effect as 10 mg/kg LCX001 on reducing mortality) is reported as “one eighth”. For the same molecule, the “Death Rate” value is 50% in data set [4] (iv 0.5 mg/kg); 30% in data set [4] (iv 1 mg/kg); 20% in data set [4] (iv 3 mg/kg); 0% in [4] (iv 10 mg/kg); 0% in [4] (iv 30 mg/kg). Further, in data set [5], the AUC0-t is 1125.49 ± 336.57 * h·ng/g. Also, the “AUC0-t of LCX001 in brain, times that of LCX001” value in [5] (brain) came to 2.23 times. In [5] (brain), the “MRT0-t of LCX001 in brain, times that of LCX001” value came out at 3.29 times. For the same molecule, in [6], the “MRT of LCX001 in plasma, times that of LCX001” value was 0.77 times.

With `CCSS/C(CCOC(=O)CCCC(=O)O[C@H]1CC[C@H](N(C)C(=O)c2ccc3nonc3c2)CC1)=C(/C)N(C)C=O` [Compound 7a, S-3-(Ethyldisulfanyl)-4-(N-methylformamido)pent-3-en-1-yl((1R,4R)-4-(N-methylbenzo[c][1,2,5]oxadiazole-5-carboxamido)cyclohexyl) glutarate], the melting point lay in the range of 78.8 to 79.5 °C. In addition, in [2], the “Ke, pseudo-first order rate constant” value is 31.1 min^−1 (×10^−2) and the half-life at 1.67 µg/mL is 2.23 min. For the same molecule, in data set [3], the “Ke, pseudo-first order rate constant” value is given as 19.9 min^−1 (×10^−2) and the half-life at 1.67 µg/mL came out at 3.48 min.

The molecule `CCCCCSS/C(CCOC(=O)CCCC(=O)O[C@H]1CC[C@H](N(C)C(=O)c2ccc3nonc3c2)CC1)=C(/C)N(C)C=O` [Compound 7d, S-3-(Amyldisulfanyl)-4-(N-methylformamido)pent-3-en-1-yl((1R,4R)-4-(N-methylbenzo[c][1,2,5]oxadiazole-5-carboxamido)cyclohexyl) glutarate] returned a melting point of 69.3 to 70.3 °C. In data set [2], the “Ke, pseudo-first order rate constant” value was 4.50 min^−1 (×10^−2) and the half-life at 1.67 µg/mL was determined as 15.4 min. In data set [3], the “Ke, pseudo-first order rate constant” value was 6.34 min^−1 (×10^−2) and the half-life at 1.67 µg/mL turned out to be 10.9 min.

Take `CCCSS/C(CCOC(=O)CCCC(=O)O[C@H]1CC[C@H](N(C)C(=O)c2ccc3nonc3c2)CC1)=C(/C)N(C)C=O` [Compound 7b, S-3-(Propyldisulfanyl)-4-(N-methylformamido)pent-3-en-1-yl((1R,4R)-4-(N-methylbenzo[c][1,2,5]oxadiazole-5-carboxamido)cyclohexyl) glutarate]: the melting point fell in the range of 78 to 79.3 °C. Besides, in [2], the “Ke, pseudo-first order rate constant” value is 7.06 min^−1 (×10^−2) and the half-life at 1.67 µg/mL stood at 9.82 min. Also, in [3], the “Ke, pseudo-first order rate constant” value is 6.82 min^−1 (×10^−2) and the half-life at 1.67 µg/mL was 10.2 min.

On to `CN(C(=O)c1ccc2nonc2c1)[C@H]1CC[C@H](O)CC1` [LCX001], for which the “Death Rate” value in data set [4] (iv 10 mg/kg) was determined as 20%. The “Increase in amplitude of the field EPSP” value in [7] was 21%. Besides, the “Inhibition of d-amphetamine-stimulated locomotion” value in data set [8] is listed as 100%. Besides, the AUC0-t in [5] came out at 504.32 ± 204.71 ng·h/g.

`C/C(=C(\CCOC(=O)CCCC(=O)O[C@H]1CC[C@H](N(C)C(=O)c2ccc3nonc3c2)CC1)SSCc1ccccc1)N(C)C=O` [Compound 7f, S-3-(Benzyldisulfanyl)-4-(N-methylformamido)pent-3-en-1-yl((1R,4R)-4-(N-methylbenzo[c][1,2,5]oxadiazole-5-carboxamido)cyclohexyl) glutarate] returned a melting point of 72.9 to 73.8 °C. For the same molecule, in data set [2], the “Ke, pseudo-first order rate constant” value is given as 4.48 min^−1 (×10^−2) and the half-life at 1.67 µg/mL stood at 15.5 min. In [3], the “Ke, pseudo-first order rate constant” value is 5.78 min^−1 (×10^−2) and the half-life at 1.67 µg/mL is 12 min.
